Measurements as given in BigSolDB 2.1.

CO/N=C(/C(=O)N[C@@H]1C(=O)N2C(C(=O)O)=C(COC(N)=O)CS[C@H]12)c1ccco1
solubility (mole fraction)
Details	278.5 K	283.4 K	288.3 K	293.3 K	298.3 K	303.5 K	308.3 K	313.4 K
in acetone	0.00362	0.0036	0.00355	0.00342	0.00337	0.00331	0.00327	0.00324
in ethanol	0.00019	0.00022	0.00028	0.00032	0.00037	0.00052	0.00056	0.00061
in isopropanol	6e-05	9e-05	0.00011	0.00012	0.00012	0.00015	0.00027	0.00032
in water	3e-05	4e-05	4e-05	6e-05	7e-05	0.00012	0.00022	0.00026
